Test results as given in patent US20230139328A1, “DOSAGE FORMS FOR IMPROVING ORGAN TRANSPLANTATION, GRAFT VERSUS HOST DISEASE AND STEM CELLS TRANSPLANTS” (Aphios Corporation, priority 2020, published 2023).
“Also recorded” adds a separate entry of the source.

Tests used:
Type in all cases: cell-based, human
[1] = tested on: neutrophil migration; experiment: Neutrophil migration induced by 24 h TNF-α pretreatment combined with a 100 nM LTB4 gradient; conditions: 24 h TNF-α pretreatment and 100 nM LTB4 gradient; data not shown
Method: Migration Assays: At confluency HMECs were treated for 1 h at 37° C. with Bryostatin-1 (10 nM, 100 nM) in MCDB-131 media or MCDB-131 media alone. Inserts were washed three times with Hank's Balanced Salt Solution (HBSS) (to eliminate drug effects on the neutrophils) and placed in a new plate containing either 500 μL 100 nM LTB4, or HBSS alone for control. 500 μL HBSS was then added to the top well and spiked with 500,000 neutrophils. For TNF-α experiments, HMECs were left in 20 ng/ml TNF-α in MCDB-131 for 24 h TNF-α was removed and HMECs washed three times. HMECs were treated for 1 h with Bryostatin-1 in endothelial growth medium (EGM) (10 nM, 100 nM). The drug was removed, and cells were washed three times. […] Neutrophils were allowed to migrate for 3 h at 37° C. Migration was stopped by removing the inserts and migration was measured using the myeloperoxidase (MPO) assay.
(§1) Myeloperoxidase Assay: Neutrophil migration was measured using myeloperoxidase (MPO) analysis. […] The supernatant was removed, and MPO activity was measured using TMB/peroxide as chromogen. The reaction was stopped with sulfuric acid and absorbance was read at 450 nm using a microplate reader. […] Data was expressed as “% neutrophil migration”, which allowed cumulative statistical analysis to be done and account for unpreventable batch-to-batch variations.

[2] = tested on: neutrophil migration across HUVECs; experiment: Time course of LTB4 induced neutrophil migration across HUVECs; conditions: single 1 h 100 nM pretreatment, washed, tested at 0, 24, 48 h
Method: Time Course Assays: At confluency, HUVECs were treated for 1 h at 37° C. with Bryostatin-1 (10 nM, 100 nM) in EGM or EGM alone. Inserts were washed three times with HBSS (to reduce drug effects on the neutrophils) and migration assays were ran at t=0, 24, or 48 h. After time elapsed, HUVECs were placed in a new plate containing either 500 μL 100 nM LTB4 or HBSS alone for control. 500 μL HBSS was then added to the top well and spiked with 500,000 neutrophils. Neutrophils were allowed to migrate for 3 h at 37° C. Migration was stopped by removing the inserts and migration was measured using the MPO assay.
Myeloperoxidase Assay: Neutrophil migration was measured using myeloperoxidase (MPO) analysis. Cell culture inserts were first removed, and plates were spun at 1,500 RPM for 5 min. The supernatant was removed, and MPO activity was measured using TMB/peroxide as chromogen. The reaction was stopped with sulfuric acid and absorbance was read at 450 nm using a microplate reader. All experiments were performed n=6. Data was expressed as “% neutrophil migration”, which allowed cumulative statistical analysis to be done and account for unpreventable batch-to-batch variations.

[3] = tested on: neutrophil migration across confluent HMEC monolayers; experiment: TNF-α induced neutrophil migration across HMEC monolayers; conditions: HMECs; 24 h TNF-α 10 or 20 ng/ml; 100 nM, 1 h pretreatment
Method: FIG. 4 graphically depicts the effect of PMA on TNF-α induced neutrophil migration.
Turning now to FIG. 5, FIG. 5 graphically depicts the effect of Bryostatin-1 on TNF-α induced neutrophil migration.
Migration Assays: At confluency HMECs were treated for 1 h at 37° C. with Bryostatin-1 (10 nM, 100 nM) in MCDB-131 media or MCDB-131 media alone. Inserts were washed three times with Hank's Balanced Salt Solution (HBSS) (to eliminate drug effects on the neutrophils) and placed in a new plate containing either 500 μL 100 nM LTB4, or HBSS alone for control. 500 μL HBSS was then added to the top well and spiked with 500,000 neutrophils. For TNF-α experiments, HMECs were left in 20 ng/ml TNF-α in MCDB-131 for 24 h TNF-α was removed and HMECs washed three times. […] Migration was stopped by removing the inserts and migration was measured using the myeloperoxidase (MPO) assay.
as §1

SMILES | effect on migration induced by TNF-α pretreatment plus LTB4 gradient [1] | time after pretreatment for which reduction of LTB4 induced migration is maintained, HUVECs [2] | effect on TNF-α induced neutrophil TEM (Type II migration) [3]
CCC/C=C/C=C/C(=O)O[C@H]1/C(=C/C(=O)OC)C[C@H]2C[C@H]([C@@H](C)O)OC(=O)C[C@H](O)C[C@@H]3C[C@H](OC(C)=O)C(C)(C)[C@](O)(C[C@@H]4C/C(=C/C(=O)OC)C[C@H](/C=C/C(C)(C)[C@]1(O)O2)O4)O3 [Bryostatin-1] | reduced migration | 48 h | attenuated Type II migration; also recorded: totally attenuated
CCCCCCCCCCCCCC(=O)O[C@@H]1[C@@H](C)[C@@]2(O)[C@@H](C=C(CO)C[C@]3(O)C(=O)C(C)=C[C@@H]23)[C@@H]2C(C)(C)[C@]12OC(C)=O [PMA, phorbol myristate acetate] | reduced migration | up to 48 h | attenuated Type II migration; also recorded: totally attenuated
